# Experiments:
# Details in all cases: incubation time: 72 h
# [1] = test system: BT-549; test: normalised viability (% of control), CellTiter-Blue; higher = more viable cells (about 100 = DMSO control)
# Method in brief: (§1)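 Compound dissolved in 5 µl medium was pre-loaded into 384-well plates, and breast cancer cell lines in 20 µl suspension were seeded on top and incubated 72 h. After adding 2.5 µl CellTiter-Blue reagent for 2 h at 37 °C, fluorescence was read at 560/590 nm. Plates were normalised to vehicle (100) and a positive kill control (0), with Z'-factor quality control. Each value is normalised viability at a single listed concentration from the series.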
# [2] = test system: CAL-148; test: as above
# Method in brief: as §1
# [3] = test system: CAL-85-1; test: as above
# Method in brief: as §1
# [4] = test system: DU-4475; test: as above
# Method in brief: as §1
# [5] = test system: MDA-MB-453; test: as above
# Method in brief: as §1
# [6] = test system: MFM-223; test: as above
# Method in brief: as §1
# [7] = test system: BT-474; test: normalised response (% of control), CellTiter-Glo; higher = more viable cells (100 = DMSO, 0 = benzethonium chloride kill control)
# Description: (§2)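 DSRT, 72 h incubation, CellTox Green / CellTiter-Glo readout. Signal is normalised to DMSO and benzethonium chloride controls. Value is the normalised response at the highest dose.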
# [8] = test system: BT-549; test: as above
# Description: as §2
# [9] = test system: CAL-120; test: as above
# Description: as §2
# [10] = test system: CAL-148; test: as above
# Description: as §2
# [11] = test system: CAL-51; test: as above
# Description: as §2
# [12] = test system: CAL-85-1; test: as above
# Description: as §2
# [13] = test system: DU-4475; test: as above
# Description: as §2
# [14] = test system: HCC1937; test: as above
# Description: as §2
# [15] = test system: HDQ-P1; test: as above
# Description: as §2
# [16] = test system: Hs578T; test: as above
# Description: as §2
# [17] = test system: MCF-10A; test: as above
# Description: as §2
# [18] = test system: MDA-MB-231; test: as above
# Description: as §2
# [19] = test system: MDA-MB-453; test: as above
# Description: as §2
# [20] = test system: MFM-223; test: as above
# Description: as §2
# [21] = test system: SK-BR-3; test: as above
# Description: as §2
Structure (SMILES),normalised viability ([1]; 10 nM),normalised viability ([1]; 1000 nM),normalised viability ([1]; 10000 nM),normalised viability ([2]; 3 nM),normalised viability ([2]; 30 nM),normalised viability ([2]; 100 nM),normalised viability ([3]; 3 nM),normalised viability ([3]; 30 nM),normalised viability ([3]; 100 nM),normalised viability ([4]; 3 nM),normalised viability ([4]; 30 nM),normalised viability ([4]; 100 nM),normalised viability ([5]; 3 nM),normalised viability ([5]; 30 nM),normalised viability ([5]; 100 nM),normalised viability ([6]; 10 nM),normalised viability ([6]; 1000 nM),normalised viability ([6]; 10000 nM),also measured
S=c1[nH]cnc2nc[nH]c12 [Mercaptopurine],115%,105%,95.6%,99.5%,98.7%,92.8%,101%,91.8%,103%,103%,87.6%,87.8%,116%,98.1%,110%,101%,94%,103%,–
CO[C@H]1C[C@@H]2CC[C@@H](C)[C@@](O)(O2)C(=O)C(=O)N2CCCC[C@H]2C(=O)O[C@H]([C@H](C)C[C@@H]2CC[C@@H](OC(=O)C(C)(CO)CO)[C@H](OC)C2)CC(=O)[C@H](C)/C=C(\C)[C@@H](O)[C@@H](OC)C(=O)[C@H](C)C[C@H](C)/C=C/C=C/C=C/1C [Temsirolimus] (100 nM),–,–,–,–,–,–,–,–,–,–,–,–,–,–,–,–,–,–,normalised response [7]: 84.3%; normalised response [8]: 56.3%; normalised response [9]: 65.4%; normalised response [10]: 58.1%; normalised response [11]: 61%; normalised response [12]: 60.5%; normalised response [13]: 73.6%; normalised response [14]: 66.8%; normalised response [15]: 77.9%; normalised response [16]: 67.1%; normalised response [17]: 88.6%; normalised response [18]: 90.2%; normalised response [19]: 58.9%; normalised response [20]: 67.7%; normalised response [21]: 53%
Nc1nc(Cl)nc2c1ncn2[C@H]1C[C@H](O)[C@@H](CO)O1 [Cladribine],–,45.8%,–,109%,–,–,101%,–,–,104%,–,–,97.4%,–,–,–,90%,–,normalised viability ([1]; 1 nM): 82.5%; normalised viability ([1]; 100 nM): 86.4%; normalised viability ([2]; 0.3 nM): 91.9%; normalised viability ([2]; 10 nM): 93%; normalised viability ([3]; 0.3 nM): 102%; normalised viability ([3]; 10 nM): 105%; normalised viability ([4]; 0.3 nM): 106%; normalised viability ([4]; 10 nM): 102%; normalised viability ([5]; 0.3 nM): 126%; normalised viability ([5]; 10 nM): 89.7%; normalised viability ([6]; 1 nM): 86.2%; normalised viability ([6]; 100 nM): 86.7%
C[C@]1(c2nc3c(C(N)=O)cccc3[nH]2)CCCN1 [Veliparib],95.3%,112%,81.7%,89.3%,86.4%,85.6%,87.9%,84.9%,84.7%,78.6%,78.3%,83.4%,109%,98.9%,94.4%,88.1%,90.3%,103%,–
